PubChem BioAssay AID1845199 (Molecular Pharmacology Branch, DTP, NCI, 2023)

Tested on: 556581-035-R-J1 tumor spheroid viability, % test/control
Assay: Anticancer human tumor 556581-035-R-J1 patient-derived ovarian carcinoma cell line growth inhibition
Details: spheroids with HUVEC and MSC; for IC50: curve of first compound; for viability, T/C: stronger effect = lower value
How it was run: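 Complex spheroids of malignant cells with endothelial cells and mesenchymal stem cells; agents alone or combined, from near clinical Cmax (or 10 microM if unknown) down in half-log steps, 0.25% DMSO final.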

[1] = second compound 1 µM, first compound 0.00949 µM
[2] = second compound 1 µM, first compound 0.03 µM
[3] = second compound 1 µM, first compound 0.0949 µM
[4] = second compound 1 µM, first compound 0.3 µM
[5] = second compound 1 µM, first compound 0.949 µM
[6] = second compound 1 µM, first compound 3 µM
[7] = second compound 3.16 µM, first compound 0.00949 µM
[8] = second compound 3.16 µM, first compound 0.03 µM
[9] = second compound 3.16 µM, first compound 0.0949 µM
[10] = second compound 3.16 µM, first compound 0.3 µM
[11] = second compound 3.16 µM, first compound 0.949 µM
[12] = second compound 3.16 µM, first compound 3 µM
[13] = second compound 10 µM, first compound 0.00949 µM
[14] = second compound 10 µM, first compound 0.03 µM
[15] = second compound 10 µM, first compound 0.0949 µM
[16] = second compound 10 µM, first compound 0.3 µM
[17] = second compound 10 µM, first compound 0.949 µM
[18] = second compound 10 µM, first compound 3 µM
[19] = second compound 31.6 µM, first compound 0.00949 µM
[20] = second compound 31.6 µM, first compound 0.03 µM
[21] = second compound 31.6 µM, first compound 0.0949 µM
[22] = second compound 31.6 µM, first compound 0.3 µM
[23] = second compound 31.6 µM, first compound 0.949 µM
[24] = second compound 31.6 µM, first compound 3 µM
[25] = second compound 100 µM, first compound 0.00949 µM
[26] = second compound 100 µM, first compound 0.03 µM
[27] = second compound 100 µM, first compound 0.0949 µM
[28] = second compound 100 µM, first compound 0.3 µM
[29] = second compound 100 µM, first compound 0.949 µM
[30] = second compound 100 µM, first compound 3 µM
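Also: spheroids exposed to compounds for 7 days before viability read.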

| SMILES | IC50 (second compound 1 µM) [µM] | IC50 (second compound 3.16 µM) [µM] | IC50 (second compound 10 µM) [µM] | IC50 (second compound 31.6 µM) [µM] | IC50 (second compound 100 µM) [µM] | viability, T/C [1] [%] | viability, T/C [2] [%] | viability, T/C [3] [%] | viability, T/C [4] [%] | viability, T/C [5] [%] | viability, T/C [6] [%] | viability, T/C [7] [%] | viability, T/C [8] [%] | viability, T/C [9] [%] | viability, T/C [10] [%] | viability, T/C [11] [%] | viability, T/C [12] [%] | viability, T/C [13] [%] | viability, T/C [14] [%] | viability, T/C [15] [%] | further results |
| --- | --- | --- | --- | --- | --- | --- | --- | --- | --- | --- | --- | --- | --- | --- | --- | --- | --- | --- | --- | --- | --- |
| CNCc1ccc(-c2cc(-c3nc(-c4ccc(S(=O)(=O)C(C)C)cc4)cnc3N)on2)cc1 + Cn1nnc2c(C(N)=O)ncn2c1=O | 1.67 | 1.56 | 1.38 | 1.38 | 0.953 | 101 | 108 | 109 | 104 | 80.2 | 18.6 | 104 | 117 | 105 | 106 | 72.6 | 20 | 106 | 109 | 110 | viability, T/C [16]: 105%; viability, T/C [17]: 67.3%; viability, T/C [18]: 15.3%; viability, T/C [19]: 113%; viability, T/C [20]: 113%; viability, T/C [21]: 110%; viability, T/C [22]: 98.4%; viability, T/C [23]: 66.2%; viability, T/C [24]: 16.5%; viability, T/C [25]: 111%; viability, T/C [26]: 102%; viability, T/C [27]: 120%; viability, T/C [28]: 98.2%; viability, T/C [29]: 50.5%; viability, T/C [30]: 11.6% |
| Cc1sc2c(c1C)C(c1ccc(Cl)cc1)=NC(CC(=O)Nc1ccc(O)cc1)c1nnc(C)n1-2 (stereo not given) + Cn1nnc2c(C(N)=O)ncn2c1=O | > 3 | > 3 | > 3 | > 3 | 2.7 | 112 | 95.6 | 82 | 76.4 | 68 | 64.5 | 101 | 97.6 | 84.8 | 75.6 | 65.5 | 61.2 | 98 | 94.6 | 82.6 | viability, T/C [16]: 72.6%; viability, T/C [17]: 68.1%; viability, T/C [18]: 57.5%; viability, T/C [19]: 96.9%; viability, T/C [20]: 93.9%; viability, T/C [21]: 82.2%; viability, T/C [22]: 70.7%; viability, T/C [23]: 65.1%; viability, T/C [24]: 54.3%; viability, T/C [25]: 99.5%; viability, T/C [26]: 99.2%; viability, T/C [27]: 79.9%; viability, T/C [28]: 71.5%; viability, T/C [29]: 59.1%; viability, T/C [30]: 48.5% |
| Cn1ncnc1[C@H]1c2n[nH]c(=O)c3cc(F)cc(c23)N[C@@H]1c1ccc(F)cc1 + Cn1nnc2c(C(N)=O)ncn2c1=O | > 3 | > 3 | > 3 | 1.95 | 1.24 | 99.5 | 93.1 | 87.3 | 75.5 | 67.6 | 51.1 | 102 | 89.7 | 87.7 | 73.9 | 67.8 | 50.2 | 94 | 88.7 | 85.8 | viability, T/C [16]: 76.6%; viability, T/C [17]: 66%; viability, T/C [18]: 52.2%; viability, T/C [19]: 86.4%; viability, T/C [20]: 74.4%; viability, T/C [21]: 77.9%; viability, T/C [22]: 68.3%; viability, T/C [23]: 62.3%; viability, T/C [24]: 43%; viability, T/C [25]: 74.4%; viability, T/C [26]: 71.8%; viability, T/C [27]: 70.4%; viability, T/C [28]: 65.9%; viability, T/C [29]: 54.7%; viability, T/C [30]: 34% |
